Assay results: patent publication US6156789A, “Method for treating abnormal cell proliferation in the brain” (Rhone-Poulenc Rorer S.A., priority 1998, dated 2000)
Several values for one entry are separate records, joined by “and”; a condition that tells them apart may be missing. Equal entries are not always repeated. Where two headings read alike, the source gives them in different places.

How the values were obtained:
[1] = Brain distribution of Compound A in mice with mammary C/16 adenocarcinomas (second method, brain tissue); assay type: in vivo, C3H/HeN female mice
Method: (§1) Mammary C/16 adenocarcinomas were implanted in C3H/HeN female mice. At least 7 days later, 4α,10β-diacetoxy-2α-benzoyloxy-5β,20-epoxy-1β-hydroxy-7β,8β-methylene-9-oxo-19-nor-11-taxen-13α-yl (2R,3S)-3-tert-butoxycarbonylamino-2-hydroxy-3-phenylpropionate ("Compound A") was administered to groups of female mice at doses of 9.5, 15.4, 24.8, 40 or 60.5 mg/kg by intravenous injection under 0.4 or 0.5 ml/injection over 15 seconds. The body weight and date of implantation were recorded for each mouse. Blood and tissue samples were taken 2, 5, 15, 30 and 45 minutes and 1, 4, 14, 24 and 48 hours, after administration. The plasma was separated from the blood samples at 4° C. and frozen immediately. The tissue and tumors were weighed and frozen immediately (-20° C.).
(§2) The plasma and tissue samples were then analyzed for the concentration of Compound A. The plasma was assayed by high pressure liquid chromatography with spectrophotometric detection. For the tissue, liver, heart, kidney, lung, spleen and tumor tissue, samples were assayed by a first method, while a second method was used for the brain tissue analyzed. In the first method, 0.2 g of tissue was combined with 2 ml of sodium phosphate buffer 0.1 M (pH:7) and homogenized. The homogenate was centrifuged and 0.5 ml of supernatant was injected into the chromatographic column. In the second method, 10 μl of standard solution was combined with 0.2 g of brain tissue. 2 ml of methanol/5% perchloric acid (50/50) were added and the mixture was homogenized. The homogenate was centrifuged and 100 μl of supernatant was injected into the chromatographic column.

[2] = Plasma kinetics of Compound A after i.v. injection in mice (HPLC); assay type: in vivo, C3H/HeN female mice; details: for Cmax at 2 min: read-out: observed maximum plasma concentration
Method: as §1, §2

[3] = Highest non toxic dose in the mouse; details: in vivo, iv, read-out: highest non toxic dose (HNTD)
[4] = 0.03 h, 40 μg/kg [sic], single mice
[5] = 0.03 h, 40 μg/kg [sic], single mice, 40 mg/kg, 1.8 min
[6] = 0.08 h, 40 μg/kg [sic], single mice, MEAN=b257
[7] = 0.08 h, 40 μg/kg [sic], single mice, MEAN=b257, 40 mg/kg, 4.8 min
[8] = 0.25 h, 40 μg/kg [sic], single mice
[9] = 0.25 h, 40 μg/kg [sic], single mice, 40 mg/kg, 15 min
[10] = 0.50 h, 40 μg/kg [sic], single mice
[11] = 0.75 h, 40 μg/kg [sic], single mice, MEAN=b278
[12] = 1 h, 40 μg/kg [sic], single mice
[13] = 1 h, 40 μg/kg [sic], single mice, 40 mg/kg, 60 min
[14] = 4 h, 40 μg/kg [sic], single mice
[15] = 4 h, 40 μg/kg [sic], single mice, 40 mg/kg, 240 min
[16] = 14 h, 40 μg/kg [sic], single mice
[17] = 24 h, 40 μg/kg [sic], single mice
[18] = 24 h, 40 μg/kg [sic], single mice, 40 mg/kg, 1440 min
[19] = 48 h, 40 μg/kg [sic], single mice

CC(=O)O[C@H]1C(=O)[C@]23C[C@H]2C[C@H]2OC[C@@]2(OC(C)=O)[C@H]3[C@H](OC(=O)c2ccccc2)[C@]2(O)C[C@H](OC(=O)[C@H](O)[C@@H](NC(=O)OC(C)(C)C)c3ccccc3)C(C)=C1C2(C)C [Compound A, 4α,10β-diacetoxy-2α-benzoyloxy-5β,20-epoxy-1β-hydroxy-7β,8β-methylene-9-oxo-19-nor-11-taxen-13α-yl (2R,3S)-3-tert-butoxycarbonylamino-2-hydroxy-3-phenylpropionate]
brain and plasma AUCs at 4 hours compared ([1]; 40 mg/kg i.v.): similar | 0 to infinity AUC in brain tissue compared with plasma ([1]; 40 mg/kg i.v., mouse): ten times that observed for plasma | % of DOSE (brain) [1, 4]: 0.42% and 0.53% and 0.47% and 0.36% and 0.45% | AMOUNT In TISSUE (brain) [1, 4]: 4.21 µg and 5.17 µg and 4.34 µg and 3.55 µg and 4.32 µg | Brain CONC. [1, 5]: 11.32 µg/g and 9.51 µg/g and 7.64 µg/g and 9.57 µg/g | RATIO BRAIN/PLASMA [1, 5]: 0.22 and 0.15 | Percentage of Compound A (of dose) in Brain ([1]; 0.033 h, 40 mg/kg): 0.19% | % of DOSE (brain) [1, 6]: 0.60% and 0.49% and 0.58% and 0.56% | AMOUNT In TISSUE (brain) [1, 6]: 6.14 µg and 4.62 µg and 5.62 µg and 5.46 µg | Brain CONC. [1, 7]: 10.69 µg/g and 13.46 µg/g and 12.56 µg/g | RATIO BRAIN/PLASMA [1, 7]: 0.27 and 0.29 and 0.34 | % of DOSE (brain) [1, 8]: 0.58% and 0.52% and 0.67% and 0.66% and 0.61% | AMOUNT In TISSUE (brain) [1, 8]: 5.38 µg and 4.88 µg and 6.68 µg and 6.07 µg and 5.75 µg | Brain CONC. [1, 9]: 11.16 µg/g and 15.37 µg/g and 13.12 µg/g and 13.21 µg/g | RATIO BRAIN/PLASMA [1, 9]: 0.53 and 0.50 and 0.66 and 0.57 | % of DOSE (brain) [1, 10]: 0.53% and 0.45% and 0.42% and 0.39% | AMOUNT In TISSUE (brain) [1, 10]: 4.78 µg and 4.56 µg and 3.87 µg and 3.53 µg and 4.19 µg | RATIO BRAIN/PLASMA ([1]; 0.50 h, 40 μg/kg [sic], single mice, 40 mg/kg, 30 min): 0.69 and 0.75 | % of DOSE (brain) [1, 11]: 0.38% and 0.53% and 0.50% and 0.45% | AMOUNT In TISSUE (brain) [1, 11]: 3.32 µg and 4.99 µg and 4.49 µg and 3.92 µg and 4.18 µg | Brain CONC. ([1]; 0.75 h, 40 μg/kg [sic], single mice, MEAN=b278, 40 mg/kg, 45 min): 11.46 µg/g and 9.98 µg/g and 9.00 µg/g and 9.5 µg/g | % of DOSE (brain) [1, 12]: 0.54% and 0.34% and 0.33% and 0.43% and 0.41% | AMOUNT In TISSUE (brain) [1, 12]: 5.14 µg and 3.35 µg and 3.14 µg and 4.22 µg and 3.96 µg | Brain CONC. [1, 13]: 7.23 µg/g and 7.33 µg/g and 9.05 µg/g and 8.77 µg/g | RATIO BRAIN/PLASMA [1, 13]: 1.18 and 1.12 | Percentage of Compound A (of dose) in Brain ([1]; 1 h, 40 mg/kg): 0.41% | % of DOSE (brain) [1, 14]: 0.34% and 0.45% and 0.36% and 0.40% and 0.39% | AMOUNT In TISSUE (brain) [1, 14]: 3.27 µg and 4.27 µg and 3.40 µg and 3.67 µg and 3.65 µg | Brain CONC. [1, 15]: 10.24 µg/g and 7.88 µg/g and 8.38 µg/g and 8.47 µg/g | RATIO BRAIN/PLASMA [1, 15]: 2.46 and 2.7 and 2.71 | Percentage of Compound A (of dose) in Brain ([1]; 4 h, 40 mg/kg): 0.39% | % of DOSE (brain) [1, 16]: 0.40% and 0.44% and 0.28% and 0.38% | AMOUNT In TISSUE (brain) [1, 16]: 3.73 µg and 4.06 µg and 2.46 µg and 3.65 µg and 3.48 µg | Brain CONC. ([1]; 14 h, 40 μg/kg [sic], single mice, 40 mg/kg, 840 min): 8.77 µg/g and 5.77 µg/g and 8.23 µg/g and 7.84 µg/g | % of DOSE (brain) [1, 17]: 0.39% and 0.29% and 0.33% | AMOUNT In TISSUE (brain) [1, 17]: 3.78 µg and 2.58 µg and 2.79 µg and 3.08 µg and 3.06 µg | Brain CONC. [1, 18]: 6.00 µg/g and 6.20 µg/g and 7.03 µg/g and 6.95 µg/g | RATIO BRAIN/PLASMA [1, 18]: 20.67 and 20.68 | Percentage of Compound A (of dose) in Brain ([1]; 24 h, 40 mg/kg): 0.33% | % of DOSE (brain) [1, 19]: 0.15% and 0.21% and 0.20% and 0.19% | AMOUNT In TISSUE (brain) [1, 19]: 1.55 µg and 2.02 µg and 2.13 µg and 1.97 µg and 1.92 µg | Brain CONC. ([1]; 48 h, 40 μg/kg [sic], single mice, 40 mg/kg, 2880 min): 4.54 µg/g and 4.77 µg/g and 4.48 µg/g and 4.37 µg/g | Percentage of Compound A (of dose) in Brain ([1]; 48 h, 40 mg/kg): 0.19% | AUC 0-4 Hours, Brain ([1]; dose = 40 mg/kg): 36.3 µg·h/g | AUC 0 to Infinity, Brain ([1]; dose = 40 mg/kg): 627 µg·h/g | t 1/2, Brain ([1]; dose = 40 mg/kg): 47.6 h | half-life ([1]; mouse, brain, iv, 40 mg/kg, 40 mg/kg i.v., read-out: half-life of the distribution phase, brain (converted)): 0.07 h | concentration at 0.03 h ([1]; mouse, brain, iv, 40 mg/kg, 0.03 h, 40 μg/kg [sic], single mice, read-out: Brain CONC.): 9800 ng/g | concentration at 0.08 h ([1]; mouse, brain, iv, 40 mg/kg, 0.08 h, 40 μg/kg [sic], single mice, MEAN=b257, read-out: Brain CONC.): 13500 ng/g | concentration at 0.25 h ([1]; mouse, brain, iv, 40 mg/kg, 0.25 h, 40 μg/kg [sic], single mice, read-out: Brain CONC.): 13200 ng/g | concentration at 0.5 h ([1]; mouse, brain, iv, 40 mg/kg, 0.50 h, 40 μg/kg [sic], single mice, read-out: Brain CONC.): 11200 ng/g | concentration at 0.75 h ([1]; mouse, brain, iv, 40 mg/kg, 0.75 h, 40 μg/kg [sic], single mice, MEAN=b278, read-out: Brain CONC.): 7540 ng/g | concentration at 1 h ([1]; mouse, brain, iv, 40 mg/kg, 1 h, 40 μg/kg [sic], single mice, read-out: Brain CONC.): 11500 ng/g | concentration at 4 h ([1]; mouse, brain, iv, 40 mg/kg, 4 h, 40 μg/kg [sic], single mice, read-out: Brain CONC.): 7390 ng/g | concentration at 14 h ([1]; mouse, brain, iv, 40 mg/kg, 14 h, 40 μg/kg [sic], single mice, read-out: Brain CONC.): 8570 ng/g | concentration at 24 h ([1]; mouse, brain, iv, 40 mg/kg, 24 h, 40 μg/kg [sic], single mice, read-out: Brain CONC.): 8580 ng/g | concentration at 48 h ([1]; mouse, brain, iv, 40 mg/kg, 48 h, 40 μg/kg [sic], single mice, read-out: Brain CONC.): 3670 ng/g | half-life ([1]; mouse, brain, iv, 40 mg/kg, read-out: t 1/2, Brain (converted)): 47.6 h | Tmax ([1]; mouse, brain, iv, 40 mg/kg i.v., read-out: time of maximum concentration, brain): 0.25 h | Kp at 0.03 h ([1]; mouse, brain/plasma, iv, 40 mg/kg, 0.03 h, 40 μg/kg [sic], single mice, read-out: RATIO BRAIN/PLASMA): 0.2 | Kp at 0.08 h ([1]; mouse, brain/plasma, iv, 40 mg/kg, 0.08 h, 40 μg/kg [sic], single mice, MEAN=b257, read-out: RATIO BRAIN/PLASMA): 0.47 | Kp at 0.25 h ([1]; mouse, brain/plasma, iv, 40 mg/kg, 0.25 h, 40 μg/kg [sic], single mice, read-out: RATIO BRAIN/PLASMA): 0.6 | Kp at 0.5 h ([1]; mouse, brain/plasma, iv, 40 mg/kg, 0.50 h, 40 μg/kg [sic], single mice, read-out: RATIO BRAIN/PLASMA): 0.93 | Kp at 1 h ([1]; mouse, brain/plasma, iv, 40 mg/kg, 1 h, 40 μg/kg [sic], single mice, read-out: RATIO BRAIN/PLASMA): 1.42 | Kp at 4 h ([1]; mouse, brain/plasma, iv, 40 mg/kg, 4 h, 40 μg/kg [sic], single mice, read-out: RATIO BRAIN/PLASMA): 2.84 | Kp at 24 h ([1]; mouse, brain/plasma, iv, 40 mg/kg, 24 h, 40 μg/kg [sic], single mice, read-out: RATIO BRAIN/PLASMA): 20.7 | kinetics in plasma and tumor tissue, linearity ([2]; 9.5 to 60.5 mg/kg i.v.): linear over the range studied | maximum plasma concentrations, dose linearity ([2]; 9.5 to 60.5 mg/kg i.v., 2 minutes): linear with respect to dose | Cmax at 2 min ([2]; mouse, plasma, iv, 9.5 mg/kg i.v., 2 minutes): 14 ± 1 µg/mL | Cmax at 2 min ([2]; mouse, plasma, iv, 15.4 mg/kg i.v., 2 minutes): 21 ± 2 µg/mL | Cmax at 2 min ([2]; mouse, plasma, iv, 24.8 mg/kg i.v., 2 minutes): 35 ± 2 µg/mL | Cmax at 2 min ([2]; mouse, plasma, iv, 40 mg/kg i.v., 2 minutes): 51 ± 1 µg/mL | Cmax at 2 min ([2]; mouse, plasma, iv, 60.5 mg/kg i.v., 2 minutes): 133 ± 30 µg/mL | AUC(0-t) at 4 h ([2]; mouse, plasma, iv, dose = 40 mg/kg): 35 µg·h/mL | AUC(0-inf) ([2]; mouse, plasma, iv, dose = 40 mg/kg, read-out: AUC 0 to Infinity, Plasma): 58.6 µg·h/mL | half-life ([2]; mouse, plasma, iv, dose = 40 mg/kg, read-out: t 1/2, Plasma (converted)): 4.4 h | MTD [3]: 40 mg/kg
